According to patent US7442788B2, “Antisense molecules and method of controlling expression of gene function by using the same” (Japan Science and Technology Corporation, priority 2001, dated 2008):
Several values for one entry are separate records, joined by “and”; a condition that tells them apart may be missing. Equal entries are not always repeated. One block for each compound: values may come before it.

Experiments:
[1] = Association constant with boric acid from CD peak decrement against borax/boric acid concentration, curve fitting; format: binding
Description: However, there is no direct evidence as yet that this change in base moiety orientation is induced by borate ester bond formation. Therefore, the dependency of the change in base moiety orientation on the concentration of borax (Na2B4O7) was investigated at pH 7.2. […] The association constant of 5′-NH2-Urd with boric acid was determined by plotting the decrement in peak height against the boric acid (borax) concentration, followed by curve fitting. Supposing that borax give 4 equivalents of boric acid in aqueous solution, the association constant of 5′-NH2-Urd with boric acid was calculated at 75 M^−1.
In addition to the above-mentioned borax, boric acid (B(OH)3) was also used and the addition test was carried out in the same manner. In this case, too, decreases in peak height were observed, and the association constant was calculated at 49 M^−1. In addition, changes in orientation due to ester formation were also observed with methylboric acid and phenylboric acid.
As is evident from FIG. 8a, almost the same change as that attained by addition of 50 mM of borax at pH 7.2 was obtained at pH 8.8 only by addition of 2 mM of borax. […] The association constant 5′-NH2-Urd with boric acid was calculated at 600 M^−1, which is greater by one order than at pH 7.2.

[2] = Circular dichroism (CD) spectrum, molar ellipticity at about 270 nm as measure of base moiety orientation (syn/anti); format: physicochemical
Source text: The molar ellipticity ([θ]max) at about 270 nm in the CD spectrum of a nucleoside reflects two factors, namely the orientation of the base moiety to the furanose moiety and the puckering of the furanose ring. It is known that the molar ellipticity at about 270 nm markedly decreases in the syn orientation as compared with the anti orientation. […]
[…] […] The rate of syn orientation induction in Urd in the presence of boric acid was smaller as compared with IPU but this can be explained by the presence of an equilibrium between the borate ester formation and the dissociation.
Specifically, CD spectra were measured with Urd, 5′-aminouridine (5′-NH2-Urd) and 5′-aminoisopropylideneuridine (5′-NH2-IPU) in phosphate buffer (pH 7.2) and with 5′-NH2-Urd in borate buffer (pH 7.2) for the investigation of uracil moiety orientations. […] This is presumably due to a syn orientation-inducing effect of hydrogen bond formation between the oxygen atom of the 2-position carbonyl group of the nucleoside base moiety and the 5′-position amino hydrogen atom. Under the measurement conditions in this case, the 5′-position amino group of 5′-NH2-Urd occurs in an ammonium ion state and presumably serves as a good hydrogen bond donor. […] This is probably due to two synergistic effects, namely the fixation of the sugar moiety to the 2′,3′-planar structure and the hydrogen bond formation between the 5′-position amino group and the 2-position carbonyl group of the base moiety.
Then, on the supposition that Urd in phosphate buffer ([θ]max value=9700) is in an ideal 100% anti orientation and 5′-NH2-IPU in phosphate buffer ([θ]max value=1200) in an ideal 100% syn orientation, the orientations of the base moiety (uracil) of uridine and uridine derivatives (5′-NH2-Urd, IPU, 5′-NH2-IPU) were evaluated under different conditions (in phosphate buffer, in borate buffer).

[3] = system: d(A)8; assay: Melting point (Tm) of complex with oligonucleotide by UV absorbance change; format: binding; conditions: phosphate pH 7.2
Description: (§1) Specifically, the PRNA2 (octamer) (17) was mixed with the oligonucleotide octamer shown in Table 3, the melting point (Tm) was determined by measuring the resulting change in absorbance on a UV spectrum, and the ability of the PRNA2 (octamer) (17) to hybridize with a nucleic acid (complex forming ability) was evaluated from that melting point. Further, for examining the influence of boric acids on the PRNA2 (octamer)-DNA hybrid formation and on the stability thereof, melting point measurements were carried out using the PRNA2 (octamer) (17) and d(A)8 as the binding target oligonucleotide to the PRNA2, namely a complementary compound to (T)8, with and without addition of borax (20 mM), and the melting points were compared. A control run was carried out in the same manner using (T)8 as the binding target oligonucleotide in lieu of d(A) 8.

[4] = system: (T)8; assay: Melting point (Tm) of complex with oligonucleotide by UV absorbance change, control run; format: binding; conditions: phosphate pH 7.2
Description: as §1

[5] = system: d(C)8; assay: Melting temperature (Tm) of homopurine PRNA-DNA complex; format: binding
[6] = system: 5′-d(ACCAAAAA)-3′; assay: Melting temperature (Tm) of PRNA (octamer)-DNA hybrid by UV absorbance change, control experiment; format: binding; conditions: for Tm: binding target 5′d(ACCAAAAA)3′
Description: (§2) Specifically, the PRNA (octamer NH2-UIIUUUUU-Lys-OH) was mixed with each of oligonucleotide octamers specified in Table 6, the melting temperature (Tm) was determined by measuring the resulting change in absorbance on UV spectra, and the ability of the PRNA (octamer) to hybridize with the nucleic acid (complex forming ability) was evaluated based on the resultant melting temperature. Furthermore, the effects of a borate on the PRNA (octamer)-DNA hybrid formation and the stability thereof were investigated using the PRNA (octamer) and 5′-d(AAAAACCA)-3′, a complementary compound as its binding target oligonucleotide, and measuring the melting temperatures with and without addition of borax (20 mM) to the phosphate buffer and comparing them. A control experiment was carried out in the same manner using 5′-d(ACCAAAAA)-3′ as the binding target oligonucleotide in lieu of 5′-d(AAAAACCA)-3′.

[7] = system: 5′-d(AAAAACCA)-3′; assay: Melting temperature (Tm) of PRNA (octamer)-DNA hybrid by UV absorbance change; conditions: binding target 5′d(AAAAACCA)3′
Description: as §2

- proportion of syn orientation of the base moiety ([2]; 8 mM borax added, phosphate buffer pH 7.2): 83 % syn
- proportion of syn orientation of the base moiety ([2]; 8 mM borax, pH adjusted from 7.2 to 6.2): 58 % syn
- Molar ellipticity ([θ]ext) at about 270 nm ([2]; borate buffer (pH 7.2)): 1600 deg·cm2/dmol
- [θ]max ([2]; borate buffer (pH 7.2)): 1600 deg cm^2dmol^−1
- proportion of syn orientation of the base moiety ([2]; borate buffer (pH 7.2)): 95 % syn
- change of CD peak at about 270 nm / orientation upon addition of borax ([2]; pH 6.0): almost no peak decreases were observed
- Molar ellipticity ([θ]ext) at about 270 nm ([2]; phosphate buffer (pH 7.2)): 5100 deg·cm2/dmol
- [θ]max ([2]; phosphate buffer (pH 7.2)): 5100 deg cm^2dmol^−1
- proportion of syn orientation of the base moiety ([2]; phosphate buffer (pH 7.2), no borax, Urd = 100% anti, 5′-NH2-IPU = 100% syn supposed): 55 % syn and 54 % syn
- Δ[θ]ext ([2]; phosphate buffer minus borate buffer): 3500
Compound: NC[C@H]1O[C@@H](n2ccc(=O)[nH]c2=O)[C@H](O)[C@@H]1O [5′-NH2-Urd, 5′-amino-5′-deoxyuridine]
- association constant with boric acid ([1]; boric acid (B(OH)3) added instead of borax): 49 M⁻¹
- association constant with boric acid ([1]; pH 7.2, borax added, borax supposed to give 4 equivalents of boric acid): 75 M⁻¹
- association constant with boric acid ([1]; pH 8.8, borax added): 600 M⁻¹
- change of CD peak at about 270 nm / orientation upon addition of borax ([2]; pH 8.8): syn orientation is induced more effectively at pH 8.8

Compound: HCl.(isoGln(5′U))8-Lys-OH [PRNA2 (17)]
- Tm ([3]; binding target d(A)8, 20 mM borax): <0 °C
- Tm ([3]; binding target d(A)8, 20 mM borax, listed as PRNA2 (octamer)): below 0 °C
- Tm ([3]; binding target d(A)8, no additive): 52.8 °C
- Tm ([4]; binding target (T)8, 20 mM borax): <0 °C
- Tm ([4]; binding target (T)8, no additive): <0 °C

Compound: NH2-isoGln(5′I)-isoGln(5′I)-isoGln(5′I)-isoGln(5′I)-isoGln(5′I)-isoGln(5′I)-isoGln(5′I)-isoGln(5′I)-Lys-OH [NH2-IIIIIIII-Lys-OH]
- Tm ([5]; binding target d(C)8, 20 mM borax): <−5 °C
- Tm ([5]; binding target d(C)8, no additive): 4.8 °C

- change of [θ]ext / CD peak from phosphate buffer to borate buffer (borax) ([2]; phosphate vs borate buffer): marked decrease
Compound: NH2-isoGln(5′U)-isoGln(5′I)-isoGln(5′I)-isoGln(5′U)-isoGln(5′U)-isoGln(5′U)-isoGln(5′U)-isoGln(5′U)-Lys-OH [NH2UIIUUUUU-Lys-OH]
- Tm ([6]; 20 mM borax): <0 °C
- Tm ([6]; no additive): 6.2 °C
- lowering of Tm with 5′-d(ACCAAAAA)-3′ in lieu of 5′-d(AAAAACCA)-3′ ([6]; no additive): 1.6 °C
- Tm ([7]; 20 mM borax): <0 °C
- Tm ([7]; 20 mM borax, listed as PRNA (octamer)): lower than 0 °C
- Tm ([7]; no additive, 1/30 M phosphate buffer): 7.8 °C
